The record followed here is paper PMC12412044, “The Role of LVV‐H7 in Alcohol‐Induced Reward Mechanisms” (Addiction Biology, 2025).

Entries after “also recorded” stand apart in the source; their conditions may differ.

Series [1] can be described thus: Blood–brain barrier permeability of fluorescently labelled compounds, fluorescence microscopy of brain sections. The format is in vivo, rat. The note with it: pepstatin conjugated with carboxyfluorescein and LVV-H7 tagged with Dansyl, given i.p. to rats; brain tissue sections, fluorescence microscopy 10×. As to the method:
(§1) LVV‐H7 was dissolved in 0.9% NaCl and administered intraperitoneally (i.p.) 15 min before experiments at doses of 0.5 and 1 mg/kg. Control groups received 0.9% NaCl injections in an equivalent volume and by the same route. Pepstatin (Sigma‐Aldrich) was dissolved in 0.9% NaCl and administered i.p. at 10 mg/kg. Ethanol (95% w/v, Polmos; Poznan, Poland) was diluted with 0.9% NaCl to a 15% w/v concentration. In the CPP procedure, ethanol at doses of 1 or 1.5 g/kg (15% w/v) was administered i.p. before each conditioning phase.
The fluorescent analogue of pepstatin was synthesized on the Tentagel S RAM resin. At first, the Fmoc‐Lys (Mtt)‐OH was introduced using COMU/DIPEA, according to the procedure described above. To remove the Mtt group, the dried resin was treated with the TFE/HFIP/TIS/DCM mixture: 1:2:0.5:6.5 (v/v). Labelling with 5(6)‐carboxyfluorescein was performed with 5(6)‐carboxyfluorescein/HOBt/DIC in a molar ratio of 1:1:1. […] The high‐resolution MS characterized the probe, and preparative HPLC assessed its purity.
We investigated the ability of synthesized LVV‐H7 and pepstatin to cross the blood–brain barrier (BBB). […] Brain tissue samples from treated rats were then analysed using fluorescence microscopy.
FIGURE 3 Rat brain sections under visible light and fluorescence microscopy 10×: (a) pepstatin labelled with carboxyfluorescein, (b) LVV‐H7 labelled with Dansyl.

For series [2], the system named is NMDA receptor (NMDAR1). The experiment in a line: Western blot densitometry of NMDA receptor expression in CNS structures after the CPP test. The format is in vivo, rat. The note with it: ethanol alone versus control. As to the method: (§2) Brain structures and spinal cords isolated from the animals were homogenized in 50 μL of the buffer consisting of 50 mM Tris/HCl, pH 7.6 and 150 mM NaCl in the presence of a proteinase inhibitor cocktail (Roche). Cells were homogenized thrice on ice by sonication (5 s each). The homogenate was centrifuged at 25 000g for 30 min at 4°C. The final protein concentration in the supernatant was determined using a Bradford assay kit (Sigma‐Aldrich).
(§3) One‐dimensional polyacrylamide gel electrophoresis was performed after standardizing the samples according to their total protein concentration. Thirty microlitres of the Laemmli sample buffer (Bio‐Rad, USA) were added to the subsequent volume of each sample, followed by incubation for 5 min at 90°C in a Thermomixer (Eppendorf). According to the Bio‐Rad protocol, proteins were separated on the 10% SDS‐PAGE.
(§4) Mini Protean system and electrotransferred onto the PVDF membrane (Bio‐Rad, USA). The adequate antibodies confirmed the presence of proteins (Biorbyt, UK). […]
(§5) Protein expression levels were measured using standard Western blotting. SDS‐PAGE was performed after standardizing protein extracts based on total protein concentration (determined via the Bradford method), immunotransfer, and immunodetection. Densitometric analysis was conducted to quantify protein levels in all structures from five animals. […]

Series [3] concerns male Wistar rats. Description: Ethanol conditioned place preference (CPP) test. It is filed as in vivo, rat. As to the method:
All conducted experiments used male Wistar rats (Experimental Medicine Center, Lublin, Poland) weighing 220 ± 20 g. The animals were housed under standard laboratory conditions (22°C, 12:12‐h light–dark cycle; light on at 8:00 AM) in groups of four rats per cage. The animals were allowed 7 days for acclimation before experiments with access to standard food (Bacutil; Motycz, Poland) and water ad libitum. After 7 days of adaptation and handling, the animals were divided into groups of 7–8 and prepared for the tests. Behavioural experiments were carried out according to the National Institute of Health Guidelines for the Care and Use of Laboratory Animals and the European Community Council Directive for Care and Use of Laboratory Animals (86/609/EEC). The Local Ethics Committee approved them. Additionally, we confirm that ARRIVE guidelines report the study.
as §1
In our experiments, eight identical rectangular CPP boxes (60 cm × 35 cm × 30 cm), each one composed of three compartments: two large compartments (25 cm × 35 cm) and a smaller central grey compartment (10 cm × 10 cm), were used. In one of the compartments, the inside walls were white, and the floor held a large grid, whereas the walls of the other compartment were painted black, and the floor held a narrow grid. Illumination in the testing room was adjusted so that the environmental (visual and tactile) cues would not produce a significant baseline preference for a specific compartment. Both large compartments were separated from a central grey area by the removable guillotine doors, the opening of which provided access to the larger compartments. The apparatus was thoroughly cleaned between each test procedure and then wiped with dry paper towels to neutralize odour traces. […] The CPP performance was measured by computerized video tracking.
The CPP paradigm was carried out according to an unbiased procedure with minor modifications. […] The time spent in each compartment was measured during the pre‐test phase. […]
During the second phase (pre‐conditioning test), 24 h after the habituation session, rats were placed in the central grey square compartment of the CPP apparatus with free access to all compartments for 15 min. The time spent in each compartment was recorded with a computer programme. […]

Series [4] has as its system μ‐opioid receptor (OPRM1). Description: Western blot densitometry of OPRM1 expression in CNS structures after the CPP test. The format is in vivo, rat. The note with it: ethanol alone versus control. As to the method: as §2, §3, §4, §5
Series [5] has as its system DARPP‐32. The experiment in a line: Western blot densitometry of DARPP‐32 expression in CNS structures after the CPP test. It is filed as in vivo, rat. The note with it: alcohol alone. As to the method:
as §2, §3, §4, §5

As to `CC(C)C[C@H](N)C(=O)N[C@H](C(=O)N[C@H](C(=O)N[C@@H](Cc1ccc(O)cc1)C(=O)N1CCC[C@H]1C(=O)N[C@@H](Cc1c[nH]c2ccccc12)C(=O)N[C@H](C(=O)N[C@@H](CCC(N)=O)C(=O)N[C@@H](CCCNC(=N)N)C(=O)N[C@@H](Cc1ccccc1)C(=O)O)[C@@H](C)O)C(C)C)C(C)C` [LVV‐H7, LVV‐hemorphin‐7], the “ability to cross the blood–brain barrier (BBB)” value in series [1] is reported as “successfully cross the BBB”. The “enzyme involved in the production of fragment VV-H7” value (proteins identified in active Fraction 29 of spinal cord homogenate, nanoLC-MALDI-MS/MS) is reported as “puromycin‐sensitive aminopeptidase (PSA)”. In addition, under “rat spinal cord homogenate, DEAE fractions, LVV-hemorphin 60 μg/mL, 10 μL in 40 μL, Tris–HCl pH 7.4, 37°C, 1 h, read-out mass spectrometry”, the “degradation products of LVV-H7 after incubation with homogenates” value is “VVYPWTQRF, YPWTQRF, PWTQRF and LVVYPWTQR fragments were mainly revealed”.

With `CCO` [ethanol], in series [2], the “NMDA receptor expression following EtOH administration” value is “statistically significant upregulation”. Besides, in series [3] (ethanol 1.0 g/kg i.p., 10-day conditioning, versus 0.9% NaCl group), the “time spent in the drug-associated compartment on the CPP test day” value is “did not change the time spent; also recorded: did not evoke any rewarding effects”. In series [3] (ethanol 1.5 g/kg (15% w/v) i.p., 10-day conditioning, versus 0.9% NaCl group), the “time spent in the drug-paired compartment on the CPP test day (expression of ethanol-induced CPP)” value was “spent significantly more time”. The “OPRM1 expression following EtOH administration” value in series [4] was “statistically significant upregulation”. In addition, the “DARPP-32 expression after alcohol administration” value in series [5] is “upregulation”.

pepstatin: in series [1], the “ability to cross the blood–brain barrier (BBB)” value is recorded as “successfully cross the BBB”. Moreover, in series [3] (pepstatin 10 mg/kg i.p. 5 min before each ethanol injection (1.5 g/kg, 15% w/v, i.p.) during 10-day conditioning, p < 0.001), the “expression of ethanol-CPP after pepstatin pretreatment” value is “significantly blocked the expression of ethanol‐CPP”. For the same compound, the “time spent in the drug-associated compartment, pepstatin given alone” value in series [3] (pepstatin 10 mg/kg i.p. before each conditioning session, no ethanol, versus 0.9% NaCl) was “did not change the time spent”.
